Test results published in the NIST ThermoML archive (doi:10.1016/j.fluid.2011.09.037).
± gives the expanded uncertainty stated by the source.

Experiment: osmotic coefficient (dimensionless); mn = molality of the nth substance listed, in mol/kg
Conditions: 323.15 K, 101 kPa, Liquid, vapor pressure osmometer

`CCCCO` [butan-1-ol] + CCCCCC[n+]1ccn(C)c1.O=S(=O)([N-]S(=O)(=O)C(F)(F)F)C(F)(F)F showed an osmotic coefficient (m1 = 0.0466) of 0.746 ± 0.014, an osmotic coefficient (m1 = 0.0832) of 0.604 ± 0.017 and an osmotic coefficient (m1 = 0.1034) of 0.574 ± 0.018. For the same compound, the osmotic coefficient (m1 = 0.1973) was 0.461 ± 0.022, the osmotic coefficient (m1 = 0.2989) was 0.411 ± 0.023 and the osmotic coefficient (m1 = 0.3965) was 0.362 ± 0.025. It also gave an osmotic coefficient (m1 = 0.4907) of 0.343 ± 0.025, an osmotic coefficient (m1 = 0.6881) of 0.295 ± 0.027 and an osmotic coefficient (m1 = 0.9952) of 0.245 ± 0.029. It also gave an osmotic coefficient (m1 = 1.304) of 0.212 ± 0.031, an osmotic coefficient (m1 = 1.685) of 0.2 ± 0.031 and an osmotic coefficient (m1 = 2.109) of 0.18 ± 0.032. For the same compound, the osmotic coefficient (m1 = 2.479) was 0.172 ± 0.032, the osmotic coefficient (m1 = 2.947) was 0.161 ± 0.032 and the osmotic coefficient (m1 = 3.291) was 0.162 ± 0.032.
`CCC(C)O` (configuration not stated) [butan-2-ol] + CCCCCC[n+]1ccn(C)c1.O=S(=O)([N-]S(=O)(=O)C(F)(F)F)C(F)(F)F showed an osmotic coefficient (m1 = 0.0478) of 0.834 ± 0.012, an osmotic coefficient (m1 = 0.076) of 0.769 ± 0.013 and an osmotic coefficient (m1 = 0.1019) of 0.659 ± 0.016. For the same compound, the osmotic coefficient (m1 = 0.2141) was 0.532 ± 0.019, the osmotic coefficient (m1 = 0.3112) was 0.443 ± 0.022 and the osmotic coefficient (m1 = 0.4257) was 0.403 ± 0.023. For the same compound, the osmotic coefficient (m1 = 0.5354) was 0.369 ± 0.024, the osmotic coefficient (m1 = 0.72) was 0.324 ± 0.026 and the osmotic coefficient (m1 = 1.008) was 0.285 ± 0.028. The osmotic coefficient (m1 = 1.311) was 0.251 ± 0.029, the osmotic coefficient (m1 = 1.722) was 0.231 ± 0.03 and the osmotic coefficient (m1 = 2.107) was 0.219 ± 0.03. It also gave an osmotic coefficient (m1 = 2.477) of 0.214 ± 0.03 and an osmotic coefficient (m1 = 2.87) of 0.195 ± 0.031.
In the case of `CCCCCO` [pentan-1-ol] + CCCCCC[n+]1ccn(C)c1.O=S(=O)([N-]S(=O)(=O)C(F)(F)F)C(F)(F)F, the osmotic coefficient (m1 = 0.0502) is reported as 0.467 ± 0.021, the osmotic coefficient (m1 = 0.0781) is reported as 0.411 ± 0.023 and the osmotic coefficient (m1 = 0.1123) is reported as 0.372 ± 0.024. It also gave an osmotic coefficient (m1 = 0.1977) of 0.313 ± 0.027, an osmotic coefficient (m1 = 0.3009) of 0.267 ± 0.028 and an osmotic coefficient (m1 = 0.4054) of 0.24 ± 0.029. The osmotic coefficient (m1 = 0.4903) was 0.214 ± 0.03, the osmotic coefficient (m1 = 0.8026) was 0.178 ± 0.032 and the osmotic coefficient (m1 = 1.11) was 0.163 ± 0.032. It also gave an osmotic coefficient (m1 = 1.368) of 0.149 ± 0.033, an osmotic coefficient (m1 = 1.723) of 0.12 ± 0.034 and an osmotic coefficient (m1 = 2.211) of 0.095 ± 0.035. It also gave an osmotic coefficient (m1 = 2.657) of 0.096 ± 0.035 and an osmotic coefficient (m1 = 3.231) of 0.091 ± 0.035.
With `CCCO` [propan-1-ol] + CCCCCC[n+]1ccn(C)c1.O=S(=O)([N-]S(=O)(=O)C(F)(F)F)C(F)(F)F the osmotic coefficient (m1 = 0.0281) was 0.906 ± 0.011, the osmotic coefficient (m1 = 0.0539) was 0.866 ± 0.011 and the osmotic coefficient (m1 = 0.081) was 0.797 ± 0.013. For the same compound, the osmotic coefficient (m1 = 0.1046) was 0.716 ± 0.015, the osmotic coefficient (m1 = 0.2004) was 0.621 ± 0.017 and the osmotic coefficient (m1 = 0.3018) was 0.523 ± 0.02. It also gave an osmotic coefficient (m1 = 0.4154) of 0.46 ± 0.022, an osmotic coefficient (m1 = 0.519) of 0.445 ± 0.022 and an osmotic coefficient (m1 = 0.8326) of 0.386 ± 0.024. For the same compound, the osmotic coefficient (m1 = 1.14) was 0.342 ± 0.025, the osmotic coefficient (m1 = 1.432) was 0.316 ± 0.026 and the osmotic coefficient (m1 = 1.742) was 0.306 ± 0.027. It also gave an osmotic coefficient (m1 = 2.247) of 0.288 ± 0.028, an osmotic coefficient (m1 = 2.739) of 0.265 ± 0.028 and an osmotic coefficient (m1 = 3.188) of 0.247 ± 0.029.
Compound `CC(C)O` [propan-2-ol] + CCCCCC[n+]1ccn(C)c1.O=S(=O)([N-]S(=O)(=O)C(F)(F)F)C(F)(F)F has an osmotic coefficient (m1 = 0.0549) of 0.902 ± 0.011, an osmotic coefficient (m1 = 0.0805) of 0.876 ± 0.011 and an osmotic coefficient (m1 = 0.0992) of 0.841 ± 0.012. It also gave an osmotic coefficient (m1 = 0.2037) of 0.678 ± 0.015, an osmotic coefficient (m1 = 0.3092) of 0.572 ± 0.018 and an osmotic coefficient (m1 = 0.4087) of 0.524 ± 0.02. The osmotic coefficient (m1 = 0.5171) was 0.485 ± 0.021, the osmotic coefficient (m1 = 0.8189) was 0.429 ± 0.023 and the osmotic coefficient (m1 = 1.111) was 0.387 ± 0.024. The osmotic coefficient (m1 = 1.405) was 0.355 ± 0.025, the osmotic coefficient (m1 = 1.712) was 0.321 ± 0.026 and the osmotic coefficient (m1 = 2.193) was 0.314 ± 0.027. The osmotic coefficient (m1 = 2.655) was 0.304 ± 0.027 and the osmotic coefficient (m1 = 3.207) was 0.294 ± 0.027.
